# How the values were obtained:
# [1] = target: APC (Xenopus laevis, UniProt A0A1L8ESF3); assay: Cyclin B1-luciferase reporter degradation (luciferase assay) in mitotic Xenopus egg extract; type: biochemical; conditions: mitotic Xenopus extract
# Method: The extract was incubated at room temperature and 3 μL samples were taken at 0, 20, 40 and 60 min.
# [2] = Effect on mitosis in MCF10a cells; type: cell-based; conditions: similar doses
# [3] = system: HeLa H2B-GFP cells; assay: Mitotic entry monitored by time-lapse imaging; type: cell-based, human; conditions: for Average time of mitotic entry / Median time of mitotic entry: Fig 4E
# [4] = system: RPE1-H2B-GFP cells; assay: Fluorescence live cell imaging with survival (Cox) analysis, RPE1; type: cell-based, human; conditions: proTAME 6 μM; for % rate of mitotic exit: relative to DMSO control, Cox model, apcin/apcin-M 25 μM; for Median mitotic duration: apcin or apcin-M 25 μM
# Method: RPE1-H2B-GFP or U2OS-H2B-GFP cells were plated in 24-well glass-bottom plates 18-24 hours prior to siRNA transfection using RNAiMax (Invitrogen). After treatment with compound(s), DIC and GFP images were captured at 6-minute intervals for 45 hours. Movies were manually analyzed using Nikon Elements software or Image J.
# RPE1-H2B-GFP or U2OS-H2B-GFP cells were plated in 24-well glass-bottom plates (Greiner BioOne, 662892) 18-24 hours prior to siRNA transfection using RNAiMax (Invitrogen). Plates were inserted into a covered chamber supplied with humidified 5% CO2 and mounted onto a motorized microscope stage (Prior Scientific). DIC and FITC images were captured at 6 minute intervals for 45 hours using a Nikon Ti inverted fluorescence microscope fitted with a 37° C. enclosed incubation chamber and using a 20× Plan Apo 0.75 NA objective lens. A Hamamatsu ORCA cooled CCD camera collected the images with 2×2 binning using Nikon Elements software (version 3.0). Movies were manually analyzed using Nikon Elements software or ImageJ. Mitotic duration was defined as the time from nuclear envelope breakdown until anaphase, in the case of normal mitosis, or until exit from prolonged mitosis as indicated by cytoplasmic blebbing accompanied by changes in chromatin as detected by H2B-GFP.
# In order to detect differences in mitotic duration among cells in the live-cell imaging screen, a stratified Cox proportional hazards model (Cox, D. R. Regression models and life tables. J Royal Statistics Soc B34, 187-220, (1972)) was fit to censored mitotic duration times (where cells that are not observed exiting mitosis or dying in mitosis are censored at the last known time in mitosis). The Cox proportional hazards model is a semiparameteric approach to modeling time-to-event data, in which covariates are assumed to have constant proportional effects over time relative to a baseline hazard function that can take any form. In this case, stratification on “person” (the individual who analyzed the movie) and “date” (the date the assay was run) allow the baseline hazard function to differ across experimental blocks, but assume a fixed effect of treatment across experimental blocks. The model is thus: hi(t|Z=j)=hj(t)exp(β1×apcini+β2×apcinMi+β3×proTAMEi+β4×proTAMEi:apcinMi+β5×proTAMEi:apcini), j=1 . . . 4 where hi(t) is the hazard function of cell i at time t, hj(t) is the baseline hazard for strata j (with 4 levels, one for each person and date combination), apcini, proTAMEi, and apcinMi are indicator variables for presence or absence of the compounds apcin, proTAME, and apcin-M, respectively in cell i, proTAMEi:apcini is an indicator variable that is 1 if both proTAME and apcin are present in cell i, and 0 otherwise, and proTAMEi:apcinMi is a similar indicator variable for proTAME+apcin-M. In this model, […] represent the effects of apcin, apcin-M, and proTAME alone, while β4 and β5 represent the additional non-additive effect of the compounds beyond what is predicted from the combination of effects of the two compounds alone. This model was fit separately to cells treated with control siRNA or Mad2 siRNA. All statistical analysis was carried out in R 3.0.0 using the functions available as part of the survival package.
# In this model, the β coefficients represent the log hazard ratios for exiting mitosis between treated and untreated cells. However, for ease of interpretation the β coefficients are exponentiated to convert them to normal hazard ratios, and then multiplied by 100 to convert to percentages relative to DMSO. These hazard ratios, which are referred to as mitotic exit rate, represent the relative probability that a treated cell in mitosis at time t will exit mitosis in the next time interval compared to an untreated cell.
# For ease of interpretation, the treatment effects are presented relative to DMSO for all individual compounds and compound combinations. […]
# [5] = 12 μM proTAME added at 0 hr after release from thymidine block
# [6] = 12 μM proTAME added at 2 hrs after release
# [7] = 12 μM proTAME added at 4 hrs after release
# [8] = 12 μM proTAME added at 6 hrs after release
# [9] = 12 μM proTAME added at 8 hrs after release
# APC, sequence (A0A1L8ESF3 entry or part of it): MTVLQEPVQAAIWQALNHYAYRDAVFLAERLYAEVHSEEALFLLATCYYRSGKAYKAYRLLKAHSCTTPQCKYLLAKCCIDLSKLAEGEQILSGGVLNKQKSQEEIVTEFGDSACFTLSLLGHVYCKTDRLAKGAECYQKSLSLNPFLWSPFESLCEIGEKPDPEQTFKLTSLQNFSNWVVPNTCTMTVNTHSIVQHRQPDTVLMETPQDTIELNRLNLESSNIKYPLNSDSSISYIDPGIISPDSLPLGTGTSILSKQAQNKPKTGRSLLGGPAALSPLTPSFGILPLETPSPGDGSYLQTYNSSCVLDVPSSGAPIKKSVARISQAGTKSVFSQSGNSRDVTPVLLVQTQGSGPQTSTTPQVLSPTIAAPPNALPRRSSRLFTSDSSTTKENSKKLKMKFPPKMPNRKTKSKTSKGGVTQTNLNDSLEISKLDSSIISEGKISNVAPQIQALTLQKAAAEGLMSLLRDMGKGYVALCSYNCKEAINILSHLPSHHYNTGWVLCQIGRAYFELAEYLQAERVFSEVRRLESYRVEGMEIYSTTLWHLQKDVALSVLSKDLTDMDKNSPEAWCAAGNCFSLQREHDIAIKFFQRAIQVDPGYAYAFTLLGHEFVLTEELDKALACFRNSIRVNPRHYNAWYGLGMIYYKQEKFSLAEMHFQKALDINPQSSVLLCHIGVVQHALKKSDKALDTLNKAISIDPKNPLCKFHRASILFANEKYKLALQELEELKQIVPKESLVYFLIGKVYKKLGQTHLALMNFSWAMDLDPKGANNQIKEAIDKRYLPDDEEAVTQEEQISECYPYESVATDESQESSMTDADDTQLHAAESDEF
# APC, sequence (Q6DFD4 entry or part of it, further chain): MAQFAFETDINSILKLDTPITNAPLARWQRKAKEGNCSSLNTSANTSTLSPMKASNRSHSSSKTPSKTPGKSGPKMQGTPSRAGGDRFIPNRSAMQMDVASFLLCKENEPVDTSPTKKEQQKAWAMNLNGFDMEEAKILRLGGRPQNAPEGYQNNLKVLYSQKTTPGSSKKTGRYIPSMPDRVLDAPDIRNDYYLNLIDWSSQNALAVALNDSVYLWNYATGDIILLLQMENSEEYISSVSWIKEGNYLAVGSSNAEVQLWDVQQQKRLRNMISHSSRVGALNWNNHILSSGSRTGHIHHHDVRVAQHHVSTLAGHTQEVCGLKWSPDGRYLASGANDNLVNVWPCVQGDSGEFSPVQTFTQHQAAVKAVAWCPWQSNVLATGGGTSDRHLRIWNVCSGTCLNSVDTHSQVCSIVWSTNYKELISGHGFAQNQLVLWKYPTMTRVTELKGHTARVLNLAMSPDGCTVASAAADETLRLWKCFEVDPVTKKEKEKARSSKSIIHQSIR
smiles,measurement,setting,value
COC(=O)[C@H](CCCN/C(=N\C(=O)OCOC(=O)Cc1ccccc1)NC(=O)OCOC(=O)Cc1ccccc1)NS(=O)(=O)c1ccc(C)cc1 [proTAME],Inhibition of cyclin B-luciferase proteolysis,[1],efficiently inhibits cyclin B-luciferase proteolysis
same,Effect on mitotic duration,[2],had no effect
same,Average time of mitotic entry,[3]; [5],712.8 min
same,Median time of mitotic entry,[3]; [5],696 min
same,Average time of mitotic entry,[3]; [6],669.0 min
same,Median time of mitotic entry,[3]; [6],660 min
same,Average time of mitotic entry,[3]; [7],636.6 min
same,Median time of mitotic entry,[3]; [7],624 min
same,Average time of mitotic entry,[3]; [8],619.4 min
same,Median time of mitotic entry,[3]; [8],612 min
same,Average time of mitotic entry,[3]; [9],622.6 min
same,Median time of mitotic entry,[3]; [9],612 min
same,Delay in mitotic entry,[3]; added 6 hour or later after release,did not delay mitotic entry
same,Delay in mitotic entry,[3]; added during release from a double thymidine block,2 h
same,% rate of mitotic exit,[4]; Mad2 siRNA,0.22%
same,Median mitotic duration,"[4]; Table 3, control siRNA",120
same,Median mitotic duration,"[4]; Table 3, mad2 siRNA",114
same,% rate of mitotic exit,[4]; control siRNA,2.32%

# Source: patent US9572788B2, “Cell permeable inhibitors of anaphase promoting complex” (President and Fellows of Harvard College, priority 2014, dated 2017)
